In US20060099235A1, “Medical devices and compositions useful for treating or inhibiting restenosis” (Medtronic Vascular, Inc., priority 2004, published 2006):

Assays:
[1] = tested on: human coronary artery smooth muscle cells (hCASMCs); assay: Microscopic evaluation of cell morphology after 3-day exposure; type: cell-based; conditions: hCASMC, 3 days
Method: (§1) Leptomycin B's anti-proliferative efficacy was tested at different concentrations (0.01 nM, 0.1 nM, 1.0 nM, 10.0 nM, 100 nM and 1000 nM) using a three day exposure to hCASMC. The same experiment was performed twice at two separate times to ascertain leptomycin's effect on cell proliferation using a cell viability assay, and the cell phenotype through a qualitative observation of cell morphology following the 3-day exposure to leptomycin B.
The evaluation of cell phenotype on drug-treated wells was performed by optical microscopy observation and capture of representative images at 200× (total magnification). Microscopic evaluation and pictures were performed before the proliferation assay was done on the 24-well drug-treated plate.
Representative microphotographs (See FIGS. 8-14) of cells exposed to different concentrations of leptomycin B for a period of three days. HCASMCs cultured in the absence of the drug (FIG. 8) reached a ˜90% confluency with the expected healthy phenotype at three days (duration of the assay), providing an adequate control.

[2] = tested on: human coronary artery smooth muscle cells (hCASMCs); assay: CellTiter-Glo Luminescent Cell Viability (proliferation) assay, 3-day exposure; type: cell-based
Method: as §1
The CellTiter-Glo® Luminescent Cell Viability Assay (Promega Corporation, Madison, Wis.) is a method of determining the number of viable cells in culture based on the quantitation of ATP, as an indicator of metabolically active cells (proliferating). A single reagent is added to cells directly in culture, this reagent lyses the cells and provides the luciferase enzyme that reacts with the liberated ATP to create a luminescent signal.
Twenty-four well plates were seeded with hCASMC at 5×10^3 cells per well (n=3) using methods know to those skilled in the art of cell culture. For example and not intended as a limitation: Materials • 1. Human coronary smooth muscles cells (HCASMC) are obtained from Clonetics, a division of Cambrex, Inc. • 2. HCASMC basal media, supplied by Clonetics and supplemented with fetal bovine serum, insulin, hFGF-B (human fibroblast growth factor) hEGF (human epidermal growth factor). • 3. Leptomycin B was purchased from LC Laboratories. Wobum, Mass., USA catalogue number L-6100 • 4. Absolute methanol • 5. Twenty-four well polystyrene tissue culture plates
Dilutions of the drug were made in serum-free cell culture media from the stock solution. A volume of 100 μL of each dilution was added to designated wells. […]
The CellTiter-Glo® Luminescent Cell Viability Assay (Promega Corporation, Madison, Wis.) was performed to assess percent viability. The CellTiter-Glo® Luminescent Cell Viability Assay is a homogeneous method of determining the number of viable cells in culture based on quantitation of the ATP present, which signals the presence of metabolically active cells. […]

## CCC(=C/[C@H](C)C/C=C/C(C)=C/[C@@H](C)C(=O)[C@@H](C)[C@H](O)[C@@H](C)C/C(C)=C/C(=O)O)/C=C/[C@@H]1OC(=O)C=C[C@@H]1C [leptomycin B, 2,10,12,16,18-nonadecapentaenoic acid]
[1]; 0.01-1000 nM
  microscopic signs of cytotoxicity: No microscopic signs of cytotoxicity
[1]; 200x optical microscopy, control ~90% confluency
  level of confluence: decreased level of confluence
[2]; 0.01-1000 nM, two trials (FIGS. 6 and 7)
  effect on human coronary artery smooth muscle cell proliferation: inhibitory effect
[2]; concentrations as low as
  concentration showing inhibitory effect on hCASMC proliferation in vitro: ≥ 1 nM
[2]; hCASMC
  nature of the effect (cytostatic vs cytotoxic): predominantly cytostatic rather than cytotoxic
